*1 amine or outer side, *2 acyl side, *3 side chain or, on linkers, in order; H or OH if unused. Where a SMILES comes first, the peptide text is derived from it. Bridges are numbered along the chain shown (N, C = ends). Roman numbers before positions name the chains, in order. [ ]: non-standard residue; d: D form. Actinocin(9to1) = Cc1c2oc3c(C)ccc(C(=O)[*:1])c3nc-2c(C(=O)[*:2])c(N)c1=O; NMeV = CN[C@H](C(=O)O)C(C)C; Sar = CNCC(=O)O
How the values were obtained:
[1] = test system: Hepatotoxicity;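 as to HepSE bilirubinemia: bilirubinemia hepatic side effect score drawn from the DILIps training data, a prediction system for drug-induced liver injury; call rule not given here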;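 as to HepSE cholecystitis: Cholecystitis-related hepatic side effect score drawn from the DILIps (drug-induced liver injury prediction) training data set; call rule not given here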;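 as to HepSE cholelithiasis: hepatic side effect score for cholelithiasis, drawn from the DILIps training data for predicting drug-induced liver injury; call rule not given here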;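 as to HepSE cirrhosis: cirrhosis hepatic side effect score taken from the DILIps (drug-induced liver injury prediction) training set; call rule not given here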;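 as to HepSE elevated liver function tests: hepatic side effect score for raised liver function tests, as recorded in the DILIps training set used for predicting drug-induced liver injury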; as to HepSE hepatic failure: call rule not given here;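 as to HepSE hepatomegaly: hepatic side effect score for hepatomegaly, taken from the training set of the DILIps drug-induced liver injury prediction system; call rule not given here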
[2] = test system: Hepatotoxicity; remark: listed apart in the source;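 as to HepSE bilirubinemia: bilirubinemia hepatic side effect score drawn from the DILIps training data, a prediction system for drug-induced liver injury; call rule not given here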;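 as to HepSE cholecystitis: Cholecystitis-related hepatic side effect score drawn from the DILIps (drug-induced liver injury prediction) training data set; call rule not given here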;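 as to HepSE cholelithiasis: hepatic side effect score for cholelithiasis, drawn from the DILIps training data for predicting drug-induced liver injury; call rule not given here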;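 as to HepSE cirrhosis: cirrhosis hepatic side effect score taken from the DILIps (drug-induced liver injury prediction) training set; call rule not given here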;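 as to HepSE elevated liver function tests: hepatic side effect score for raised liver function tests, as recorded in the DILIps training set used for predicting drug-induced liver injury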; as to HepSE hepatic failure: call rule not given here
[3] = test system: Hepatotoxicity; remark: listed apart in the source;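 as to HepSE bilirubinemia: bilirubinemia hepatic side effect score drawn from the DILIps training data, a prediction system for drug-induced liver injury; call rule not given here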;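 as to HepSE cholecystitis: Cholecystitis-related hepatic side effect score drawn from the DILIps (drug-induced liver injury prediction) training data set; call rule not given here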;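 as to HepSE cholelithiasis: hepatic side effect score for cholelithiasis, drawn from the DILIps training data for predicting drug-induced liver injury; call rule not given here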;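 as to HepSE cirrhosis: cirrhosis hepatic side effect score taken from the DILIps (drug-induced liver injury prediction) training set; call rule not given here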;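 as to HepSE elevated liver function tests: hepatic side effect score for raised liver function tests, as recorded in the DILIps training set used for predicting drug-induced liver injury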; as to HepSE hepatic failure: call rule not given here
[4] = test system: Hepatotoxicity; remark: listed apart in the source;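 as to HepSE bilirubinemia: bilirubinemia hepatic side effect score drawn from the DILIps training data, a prediction system for drug-induced liver injury; call rule not given here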;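 as to HepSE cholecystitis: Cholecystitis-related hepatic side effect score drawn from the DILIps (drug-induced liver injury prediction) training data set; call rule not given here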;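 as to HepSE cholelithiasis: hepatic side effect score for cholelithiasis, drawn from the DILIps training data for predicting drug-induced liver injury; call rule not given here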;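 as to HepSE cirrhosis: cirrhosis hepatic side effect score taken from the DILIps (drug-induced liver injury prediction) training set; call rule not given here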;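 as to HepSE elevated liver function tests: hepatic side effect score for raised liver function tests, as recorded in the DILIps training set used for predicting drug-induced liver injury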; as to HepSE hepatic failure: call rule not given here
[5] = test system: Hepatotoxicity; remark: listed apart in the source; as to HepSE hepatic failure: call rule not given here
[6] = test system: Hepatotoxicity; remark: listed apart in the source; as to HepSE hepatic failure: call rule not given here
[7] = test system: Hepatotoxicity; remark: listed apart in the source
[8] = test system: Hepatotoxicity; remark: listed apart in the source
[9] = test system: Hepatotoxicity; remark: listed apart in the source
[10] = test system: Hepatotoxicity; remark: listed apart in the source
[11] = test system: Hepatotoxicity; remark: listed apart in the source
[12] = test system: Hepatotoxicity; remark: listed apart in the source
[13] = test system: Hepatotoxicity; remark: listed apart in the source
[14] = test system: Hepatotoxicity; remark: listed apart in the source

Row | SMILES | HepSE_bilirubinemia [1] | HepSE_cholecystitis [2] | HepSE_cholelithiasis [3] | HepSE_cirrhosis [4] | HepSE_elevated liver function tests [5] | HepSE_hepatic failure [6] | HepSE_hepatic necrosis [7] | HepSE_hepatitis [8] | HepSE_hepatomegaly [9] | HepSE_jaundice [10] | HepSE_liver disease [11] | HepSE_liver fatty [12] | HepSE_liver function tests abnormal [13] | HepSE_Combined Scores [14] | other results
1 | NCCS [CYSTEAMINE] | 0 | 0 | 0 | 0 | 0 | 0 | 0 | 0 | 0 | 0 | 0 | 0 | 0 | 0 | –
2 | Nc1ccn([C@@H]2O[C@H](CO)[C@@H](O)[C@@H]2O)c(=O)n1 [CYTARABINE] | – | – | – | – | – | – | – | – | – | – | – | – | – | – | HepSE_bilirubinemia ([1]; Liver): 1; HepSE_cholecystitis ([2]; Liver): 0; HepSE_cholelithiasis ([3]; Liver): 0; HepSE_cirrhosis ([4]; Liver): 0; HepSE_elevated liver function tests ([5]; Liver): 0; HepSE_hepatic failure ([6]; Liver): 0; HepSE_hepatic necrosis ([7]; Liver): 0; HepSE_hepatitis ([8]; Liver): 0; HepSE_hepatomegaly ([9]; Liver): 0; HepSE_jaundice ([10]; Liver): 1; HepSE_liver disease ([11]; Liver): 0; HepSE_liver fatty ([12]; Liver): 0; HepSE_liver function tests abnormal ([13]; Liver): 0; HepSE_Combined Scores ([14]; Liver): 2
3 | C[C@@H](O)C(=O)O [D-LACTIC ACID] | 0 | 0 | 0 | 0 | 0 | 0 | 0 | 0 | 0 | 0 | 0 | 0 | 0 | 0 | –
4 | CN(C)/N=N/c1[nH]cnc1C(N)=O [DACARBAZINE] | 0 | 0 | 0 | 0 | 0 | 0 | 0 | 0 | 0 | 0 | 0 | 0 | 0 | 0 | –
5 | Cc1c2oc3c(C)ccc(C(=O)N[C@@H]4C(=O)N[C@H](C(C)C)C(=O)N5CCC[C@H]5C(=O)N(C)CC(=O)N(C)[C@@H](C(C)C)C(=O)O[C@@H]4C)c3nc-2c(C(=O)N[C@@H]2C(=O)N[C@H](C(C)C)C(=O)N3CCC[C@H]3C(=O)N(C)CC(=O)N(C)[C@@H](C(C)C)C(=O)O[C@@H]2C)c(N)c1=O [DACTINOMYCIN] (I: T[dV]P[Sar][NMeV] / II: T[dV]P[Sar][NMeV]; ester I:1-I:C, II:1-II:C; linker I:N-II:N via Actinocin(9to1)) | 0 | 0 | 0 | 0 | 0 | 1 | 0 | 0 | 0 | 0 | 0 | 0 | 0 | 1 | –
6 | C#C[C@]1(O)CC[C@H]2[C@@H]3CCC4=Cc5oncc5C[C@]4(C)[C@H]3CC[C@@]21C [DANAZOL] | 0 | 0 | 0 | 0 | 0 | 0 | 0 | 0 | 0 | 1 | 0 | 0 | 0 | 1 | –
7 | O=C1CN(/N=C/c2ccc(-c3ccc([N+](=O)[O-])cc3)o2)C(O)=N1 [DANTROLENE] | 0 | 0 | 0 | 0 | 0 | 1 | 0 | 1 | 0 | 0 | 0 | 0 | 0 | 2 | –
8 | Nc1ccc(S(=O)(=O)c2ccc(N)cc2)cc1 [DAPSONE] | – | – | – | – | – | – | – | – | – | – | – | – | – | – | HepSE_bilirubinemia ([1]; Liver): 0; HepSE_cholecystitis ([2]; Liver): 0; HepSE_cholelithiasis ([3]; Liver): 0; HepSE_cirrhosis ([4]; Liver): 0; HepSE_elevated liver function tests ([5]; Liver): 0; HepSE_hepatic failure ([6]; Liver): 0; HepSE_hepatic necrosis ([7]; Liver): 0; HepSE_hepatitis ([8]; Liver): 0; HepSE_hepatomegaly ([9]; Liver): 0; HepSE_jaundice ([10]; Liver): 0; HepSE_liver disease ([11]; Liver): 0; HepSE_liver fatty ([12]; Liver): 0; HepSE_liver function tests abnormal ([13]; Liver): 0; HepSE_Combined Scores ([14]; Liver): 0
9 | NC(=O)C(c1ccccc1)(c1ccccc1)[C@@H]1CCN(CCc2ccc3c(c2)CCO3)C1 [DARIFENACIN] | 0 | 0 | 0 | 0 | 0 | 0 | 0 | 0 | 0 | 0 | 0 | 0 | 0 | 0 | –
10 | Cc1nc(Nc2ncc(C(=O)Nc3c(C)cccc3Cl)s2)cc(N2CCN(CCO)CC2)n1.O [DASATINIB] | 0 | 1 | 0 | 0 | 0 | 0 | 0 | 1 | 0 | 0 | 0 | 0 | 1 | 3 | –
11 | COc1cccc2c1C(=O)c1c(O)c3c(c(O)c1C2=O)C[C@@](O)(C(C)=O)C[C@@H]3O[C@H]1C[C@H](N)[C@H](O)[C@H](C)O1 [DAUNORUBICIN] | 0 | 0 | 0 | 0 | 0 | 0 | 0 | 0 | 1 | 0 | 0 | 0 | 0 | 1 | –
12 | O=C(O)c1ccc(-n2nc(-c3ccccc3O)nc2-c2ccccc2O)cc1 [DEFERASIROX] | 0 | 0 | 1 | 1 | 0 | 1 | 0 | 1 | 0 | 0 | 0 | 0 | 1 | 5 | –

Reference: ChEMBL document CHEMBL1909294, “Translating clinical findings into knowledge in drug safety evaluation--drug induced liver injury prediction system (DILIps)” (PLoS Comput Biol, 2011)
